Reference: patent US20060069132A1, “Azolecarboxamide herbicides” (priority 2004, published 2006)
Where two headings read alike, the source gives them in different places.

Assays:
lambsquarters = assay: Test B pre-/postemergence herbicide test; assay type: in vivo, Chenopodium album; details: Chenopodium album, 336 h; for pest or weed control at 125 g/ha: 125 g ai/ha; for pest or weed control at 500 g/ha: 500 g ai/ha
Method in brief: (§1)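 Visual rating, 0 (no effect) to 100 (complete control), versus untreated controls after 13–15 d in greenhouse. Pre- and postemergence applications (postemergence plants 2–18 cm, 1–4 leaves); flooded paddy arm at 2-leaf stage. Compounds in non-phytotoxic solvent plus surfactant.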

velvetleaf = assay: Test B pre-/postemergence herbicide test; assay type: in vivo, Abutilon theophrasti; details: Abutilon theophrasti, 336 h; for pest or weed control at 125 g/ha: 125 g ai/ha; for pest or weed control at 500 g/ha: 500 g ai/ha
Method in brief: as §1

corn = assay: Test B pre-/postemergence herbicide test; assay type: in vivo, Zea mays; details: Zea mays; for plant injury at 125 g/ha: 125 g ai/ha
Method in brief: as §1

rice = assay: Test B flooded paddy test; assay type: in vivo, Oryza sativa; details: Oryza sativa, 336 h, 1000 g ai/ha, scale 0 to 100 (0 no effect, 100 complete control), read-out: Rice plant response rating
Method in brief: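 Read-out: visual comparison with controls, scored 0 to 100, where 100 means complete control and 0 no effect. Formulated chemicals were applied postemergence to plants 2–18 cm tall (1- to 4-leaf), or to flooded-paddy plants at the 2-leaf stage, then held 13 to 15 days under glass.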

wheat = assay: Test B postemergence herbicide test; assay type: in vivo, Triticum aestivum; details: Triticum aestivum, post-emergence, 336 h, postemergence, read-out: Wheat plant response rating
Method in brief: (§2)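 Visual ratings, 0 (no effect) to 100 (complete control), made versus controls after 13–15 d greenhouse. Paddy plants treated at 2-leaf stage; postemergence plants at 1- to 4-leaf stage, 2–18 cm tall.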

barnyardgrass [1] = assay: Test B pre-/postemergence herbicide test; assay type: in vivo, Echinochloa crus-galli; details: Echinochloa crus-galli; for pest or weed control at 125 g/ha: 125 g ai/ha; for pest or weed control at 500 g/ha: 500 g ai/ha
Method in brief: (§3)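 Response was scored visually 13 to 15 days after treatment against untreated greenhouse controls, 0 meaning no effect and 100 complete control. Formulations (solvent mixture plus surfactant) went onto soil after planting, onto foliage of 1- to 4-leaf plants, and onto 2-leaf plants in a flooded paddy set including rice and barnyardgrass.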

ducksalad = assay: Test B flooded paddy test; assay type: in vivo, Heteranthera limosa; details: Heteranthera limosa, 336 h, 1000 g ai/ha, scale 0 to 100 (0 no effect, 100 complete control), read-out: Ducksalad plant response rating
Method in brief: (§4)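 Visual control ratings, 0–100 versus untreated controls, taken after 13 to 15 days in the greenhouse. Blackgrass received a postemergence spray at the 1- to 4-leaf stage (2–18 cm); ducksalad, umbrella sedge and barnyardgrass were flooded-paddy treated at 2 leaves.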

wild oat = assay: Test B postemergence herbicide test; assay type: in vivo, Avena fatua; details: Avena fatua, post-emergence, 336 h, postemergence, read-out: Oat, Wild plant response rating
Method in brief: as §2

blackgrass = assay: Test B postemergence herbicide test; assay type: in vivo, Alopecurus myosuroides; details: Alopecurus myosuroides, post-emergence, 336 h, postemergence, read-out: Blackgrass plant response rating
Method in brief: as §4

cocklebur = assay: Test B pre-/postemergence herbicide test; assay type: in vivo, Xanthium strumarium; details: Xanthium strumarium; for pest or weed control at 125 g/ha: 125 g ai/ha; for pest or weed control at 500 g/ha: 500 g ai/ha
Method in brief: as §3

morningglory = assay: Test B pre-/postemergence herbicide test; assay type: in vivo, Ipomoea coccinea; details: Ipomoea, 336 h; for pest or weed control at 125 g/ha: 125 g ai/ha; for pest or weed control at 500 g/ha: 500 g ai/ha
Method in brief: as §3

large crabgrass = assay: Test B pre-/postemergence herbicide test; assay type: in vivo, Digitaria sanguinalis; details: Digitaria sanguinalis; for pest or weed control at 125 g/ha: 125 g ai/ha; for pest or weed control at 500 g/ha: 500 g ai/ha
Method in brief: as §1

pigweed = assay: Test B pre-/postemergence herbicide test; assay type: in vivo, Amaranthus retroflexus; details: Amaranthus retroflexus, 336 h; for pest or weed control at 125 g/ha: 125 g ai/ha; for pest or weed control at 500 g/ha: 500 g ai/ha
Method in brief: as §1

Surinam grass = assay: Test B pre-/postemergence herbicide test; assay type: in vivo, Urochloa decumbens; details: Urochloa decumbens; for pest or weed control at 125 g/ha: 125 g ai/ha; for pest or weed control at 500 g/ha: 500 g ai/ha
Method in brief: as §1

barnyardgrass [2] = assay: Test B flooded paddy test; assay type: in vivo, Echinochloa crus-galli; details: Echinochloa crus-galli, 336 h, 1000 g ai/ha, scale 0 to 100 (0 no effect, 100 complete control), read-out: Barnyardgrass plant response rating
Method in brief: as §4

[3] = system: small flower umbrella sedge; assay: Test B flooded paddy test; assay type: in vivo, Cyperus difformis; details: Cyperus difformis, 336 h, 1000 g ai/ha, scale 0 to 100 (0 no effect, 100 complete control), read-out: Sedge, Umbrella plant response rating
Method in brief: as §4

[4] = 125 g ai/ha, visual rating, scale 0 (no effect) to 100 (complete control)
[5] = 500 g ai/ha, scale 0 to 100, 0 is no effect, 100 is complete control

CCn1nc(C(C)(C)C)c(F)c1C(=O)Nc1cc(C(=O)N(C)C)ccc1F [Compound 276, N-[5-[(dimethylamino)carbonyl]-2-fluorophenyl]-3-(1,1-dimethylethyl)-1-ethyl-4-fluoro-1H-pyrazole-5-carboxamide]
80%: pest or weed control at 500 g/ha (barnyardgrass [1]; pre-emergence, visual rating, 0 = no effect, 100 = complete control, read-out: Plant response rating, Barnyardgrass) | pest or weed control at 1000 g/ha (ducksalad) | pest or weed control at 1000 g/ha [3]
30%: plant injury at 500 g/ha (wheat; [5]) | pest or weed control at 125 g/ha (wild oat; [4]) | pest or weed control at 125 g/ha (blackgrass; [4]) | pest or weed control at 500 g/ha (cocklebur; pre-emergence, visual rating, 0 = no effect, 100 = complete control, read-out: Plant response rating, Cocklebur) | pest or weed control at 500 g/ha (morningglory; post-emergence, postemergence, scale 0 to 100, 0 is no effect, 100 is complete control, read-out: Morningglory plant response rating) | pest or weed control at 125 g/ha (pigweed; pre-emergence, 0 = no effect, 100 = complete control, read-out: Pigweed plant response rating (0 to 100 scale))
50%: pest or weed control at 500 g/ha (velvetleaf; pre-emergence, visual rating, 0 = no effect, 100 = complete control, read-out: Plant response rating, Velvetleaf)
60%: pest or weed control at 500 g/ha (lambsquarters; post-emergence, postemergence, scale 0 to 100, 0 is no effect, 100 is complete control, read-out: Lambsquarters plant response rating) | Corn plant response rating (crop injury, 0 = no effect, 100 = complete kill) at 500 g/ha (corn; pre-emergence, 500 g ai/ha, visual rating, 0 = no effect, 100 = complete control) | pest or weed control at 125 g/ha (barnyardgrass [1]; pre-emergence, 0 = no effect, 100 = complete control, read-out: Barnyardgrass plant response rating (0 to 100 scale)) | pest or weed control at 500 g/ha (Surinam grass; pre-emergence, visual rating, 0 = no effect, 100 = complete control, read-out: Plant response rating, Surinam Grass)
0%: pest or weed control at 125 g/ha (velvetleaf; pre-emergence, 0 = no effect, 100 = complete control, read-out: Velvetleaf plant response rating (0 to 100 scale)) | plant injury at 125 g/ha (corn; post-emergence, postemergence, visual rating, scale 0 (no effect) to 100 (complete control), read-out: Corn plant response rating) | pest or weed control at 125 g/ha (barnyardgrass [1]; post-emergence, postemergence, visual rating, scale 0 (no effect) to 100 (complete control), read-out: Barnyardgrass plant response rating) | pest or weed control at 125 g/ha (cocklebur; pre-emergence, 0 = no effect, 100 = complete control, read-out: Cocklebur plant response rating (0 to 100 scale)) | pest or weed control at 125 g/ha (morningglory; pre-emergence, 0 = no effect, 100 = complete control, read-out: Morningglory plant response rating (0 to 100 scale))
20%: pest or weed control at 125 g/ha (lambsquarters; post-emergence, postemergence, visual rating, scale 0 (no effect) to 100 (complete control), read-out: Lambsquarters plant response rating) | plant injury at 500 g/ha (corn; post-emergence, postemergence, 500 g ai/ha, scale 0 to 100, 0 is no effect, 100 is complete control, read-out: Corn plant response rating) | plant injury at 125 g/ha (corn; pre-emergence, 0 = no effect, 100 = complete control, read-out: Corn plant response rating (0 to 100 scale)) | plant injury at 125 g/ha (wheat; [4]) | pest or weed control at 500 g/ha (large crabgrass; post-emergence, postemergence, scale 0 to 100, 0 is no effect, 100 is complete control, read-out: Crabgrass, Large plant response rating) | pest or weed control at 500 g/ha (Surinam grass; post-emergence, postemergence, scale 0 to 100, 0 is no effect, 100 is complete control, read-out: Surinam Grass plant response rating)
40%: pest or weed control at 125 g/ha (lambsquarters; pre-emergence, 0 = no effect, 100 = complete control, read-out: Lambsquarters plant response rating (0 to 100 scale)) | pest or weed control at 500 g/ha (velvetleaf; post-emergence, postemergence, scale 0 to 100, 0 is no effect, 100 is complete control, read-out: Velvetleaf plant response rating) | pest or weed control at 500 g/ha (wild oat; [5]) | pest or weed control at 500 g/ha (blackgrass; [5]) | pest or weed control at 125 g/ha (pigweed; post-emergence, postemergence, visual rating, scale 0 (no effect) to 100 (complete control), read-out: Pigweed plant response rating)
70%: plant injury at 1000 g/ha (rice) | pest or weed control at 500 g/ha (large crabgrass; pre-emergence, visual rating, 0 = no effect, 100 = complete control, read-out: Plant response rating, Crabgrass, Large) | pest or weed control at 500 g/ha (pigweed; post-emergence, postemergence, scale 0 to 100, 0 is no effect, 100 is complete control, read-out: Pigweed plant response rating) | pest or weed control at 1000 g/ha (barnyardgrass [2])
10%: pest or weed control at 125 g/ha (velvetleaf; post-emergence, postemergence, visual rating, scale 0 (no effect) to 100 (complete control), read-out: Velvetleaf plant response rating) | pest or weed control at 500 g/ha (barnyardgrass [1]; post-emergence, postemergence, scale 0 to 100, 0 is no effect, 100 is complete control, read-out: Barnyardgrass plant response rating) | pest or weed control at 125 g/ha (cocklebur; post-emergence, postemergence, visual rating, scale 0 (no effect) to 100 (complete control), read-out: Cocklebur plant response rating) | pest or weed control at 500 g/ha (cocklebur; post-emergence, postemergence, scale 0 to 100, 0 is no effect, 100 is complete control, read-out: Cocklebur plant response rating) | pest or weed control at 125 g/ha (morningglory; post-emergence, postemergence, visual rating, scale 0 (no effect) to 100 (complete control), read-out: Morningglory plant response rating) | pest or weed control at 500 g/ha (morningglory; pre-emergence, visual rating, 0 = no effect, 100 = complete control, read-out: Plant response rating, Morningglory) | pest or weed control at 125 g/ha (large crabgrass; post-emergence, postemergence, visual rating, scale 0 (no effect) to 100 (complete control), read-out: Crabgrass, Large plant response rating) | pest or weed control at 125 g/ha (large crabgrass; pre-emergence, 0 = no effect, 100 = complete control, read-out: Crabgrass, Large plant response rating (0 to 100 scale)) | pest or weed control at 125 g/ha (Surinam grass; post-emergence, postemergence, visual rating, scale 0 (no effect) to 100 (complete control), read-out: Surinam Grass plant response rating) | pest or weed control at 125 g/ha (Surinam grass; pre-emergence, 0 = no effect, 100 = complete control, read-out: Surinam Grass plant response rating (0 to 100 scale))
100%: pest or weed control at 500 g/ha (lambsquarters; pre-emergence, visual rating, 0 = no effect, 100 = complete control, read-out: Plant response rating, Lambsquarters) | pest or weed control at 500 g/ha (pigweed; pre-emergence, visual rating, 0 = no effect, 100 = complete control, read-out: Plant response rating, Pigweed)
